Key:
[1] = tested on: VEGF; experiment: Plasma VEGF concentration (ELISA); format: in vivo, human
Description: […] Samples were analysed using the relevant quantitative enzyme-linked immunosorbent assay (ELISA) (R&D Systems Europe, Oxford, UK) according to the manufacturer's instructions. DCE-MRI was performed at baseline, on day 2 (only cycle 1), and on day 14 of cycles 1–3 to assess tumour blood flow/tumour vessel permeability in a subgroup of patients ([Morgan et al, 2003]).
(§1) To assess the biological activity of telatinib, plasma concentration analyses for the angiogenic markers VEGF, sVEGFR-2, bFGF, PDGF and […] were performed at baseline and during the course of the study. Furthermore, DCE-MRI measurements were done at baseline, on days 2 and 14 of cycle 1 and on day 14 of cycles 2 and 3. Evaluable DCE-MRI results were available for a subgroup of patients treated at dose levels of 300 mg BID or higher.

[2] = tested on: sVEGFR-2; experiment: Plasma sVEGFR-2 concentration (ELISA); format: in vivo, human; conditions: over the course of the study
Description: (§2) The effects of telatinib treatment on the plasma concentrations of sVEGFR-2, VEGF and bFGF were determined from blood samples taken at baseline, on day 14 of cycles 1, 2, 4, 6, etc. and at the final visit. Samples were analysed using the relevant quantitative enzyme-linked immunosorbent assay (ELISA) (R&D Systems Europe, Oxford, UK) according to the manufacturer's instructions. DCE-MRI was performed at baseline, on day 2 (only cycle 1), and on day 14 of cycles 1–3 to assess tumour blood flow/tumour vessel permeability in a subgroup of patients ([Morgan et al, 2003]).
as §1

[3] = tested on: tumour blood flow/tumour vessel permeability; experiment: DCE-MRI of tumour blood flow/tumour vessel permeability; format: in vivo, human
Description: as §2, §1

[4] = tested on: H460 non-small cell lung carcinoma; parameters: method as in printed; conditions: H460 non-small cell lung carcinoma model; background statement, ref not given; cited from earlier work
[5] = tested on: Colo-205 colon carcinoma; parameters: method as in printed; conditions: Colo-205 colon carcinoma model; background statement, ref not given; cited from earlier work
[6] = tested on: p-glycoprotein transporter; parameters: method as in printed; conditions: in vitro studies; background statement, ref not given; cited from earlier work
[7] = tested on: human aortic smooth muscle cells; parameters: method as in printed; conditions: background statement, ref not given; cited from earlier work
[8] = tested on: PDGFR-β; parameters: method as in printed; conditions: biochemical assay; background statement, ref not given; cited from earlier work
[9] = tested on: major human CYP isoforms; parameters: method as in printed; conditions: at therapeutically relevant concentrations; background statement, ref not given; cited from earlier work
[10] = tested on: refractory advanced solid tumours; experiment: Tumour response according to RECIST; format: in vivo, human; conditions: number of patients
Description: History, physical examinations, haematological and biochemical laboratory evaluations were performed at screening, on days 1, 7 and 14 of cycle 1 and on day 1 of subsequent cycles. Baseline objective tumour measurements were performed within 4 weeks prior to study treatment. Lesions at all disease sites were categorised as either measurable or nonmeasurable. Indicator lesions were selected and monitored throughout the study by the same assessor and using the same technique. Tumour response was evaluated according to the RECIST ([Therasse et al, 2000]).

[11] = tested on: DLD-1 colon carcinoma; parameters: method as in printed; conditions: DLD-1 colon carcinoma model; background statement, ref not given; cited from earlier work
[12] = tested on: IL-8; experiment: Plasma IL-8 level; format: in vivo, human; conditions: after 14 days of multiple dosing
Description: The relative changes between cycle 1, day 14 and baseline were calculated for VEGF, sVEGFR-2, bFGF, IL-8, tumour blood flow and tumour vessel permeability as measured by DCE-MRI and diastolic blood pressure (Figure 2C). […] The changes in VEGF and sVEGFR-2 plasma levels, the decrease in tumour blood flow and permeability and the increase in diastolic blood pressure were not predictive for the clinical outcome; there were no statistically significant differences in the change of biomarkers for patients who reached a progression-free survival of >3 months compared with those who stopped treatment during the first 3 months due to progressive disease.

[13] = parameters: method as in printed; conditions: in vitro studies; background statement, ref not given; cited from earlier work
[14] = tested on: human umbilical vein endothelial cells; parameters: method as in printed; conditions: human umbilical vein endothelial cells in vitro; background statement, ref not given; cited from earlier work
[15] = tested on: bFGF; experiment: Plasma bFGF concentration (ELISA); format: in vivo, human; conditions: after 14 days of multiple dosing
Description: as §2, §1

[16] = tested on: MDA-MB-231 breast carcinoma; parameters: method as in printed; conditions: MDA-MB-231 breast carcinoma model; background statement, ref not given; cited from earlier work
[17] = tested on: VEGFR-2; parameters: method as in printed; conditions: biochemical assay; background statement, ref not given; cited from earlier work
[18] = tested on: cytochrome P450 (CYP) isoforms; parameters: method as in printed; conditions: background statement, ref not given, cited from earlier work
[19] = primary tumour site Colorectal, N=25
[20] = primary tumour site Other, N=17
[21] = primary tumour site Pancreatic, N=4

CNC(=O)c1cc(COc2nnc(Nc3ccc(Cl)cc3)c3ccoc23)ccn1 [telatinib]
VEGF levels ([1]; day 21 compared to baseline): increased
VEGF plasma levels ([1]; within 8 h after the first telatinib administration): dose-dependent short-term increase
sVEGFR-2 levels [2]: dose-dependent decrease
iAUC60 for the gadolinium curve ([3]; DCE-MRI, dose levels of 300 mg BID or higher): decrease
telatinib AUC0−12 at which substantial decreases in the gadolinium iAUC60 ratio were observed ([3]; day 14 of cycle 1): about 4 mg h l^−1
total daily dose at which substantial decreases in the gadolinium iAUC60 ratio were observed ([3]; day 14 of cycle 1): ≥ 600 mg
tumour growth in vivo [4]: potent, dose-dependent reduction in tumour growth
tumour growth in vivo [5]: potent, dose-dependent reduction in tumour growth
drug–drug interactions due to modulation of p-glycoprotein transporter activity [6]: unlikely
PDGF-stimulated growth [7]: inhibited
PDGFR-β tyrosine kinase activity [8]: potent inhibitor
inhibitory and inductive potential on major human CYP isoforms [9]: neither an inhibitory nor an inductive potential
Best response NA (not assessable for response) ([10]; Total, N=71): 1
Best response PD clin (RECIST) ([10]; Total, N=71): 9
Best response PD meas (RECIST) ([10]; Total, N=71): 14
Best response PR (RECIST) ([10]; Total, N=71): 2
Best response SD (RECIST) ([10]; Total, N=71): 42
Stabilisation (months) <6 ([10]; Total, N=71): 62
Stabilisation (months) >6 ([10]; Total, N=71): 5
Stabilisation (months) >12 ([10]; Total, N=71): 3
Best response PD clin (RECIST) [10, 19]: 1
Best response PD meas (RECIST) [10, 19]: 6
Best response SD (RECIST) [10, 19]: 17
Stabilisation (months) <6 [10, 19]: 23
Stabilisation (months) >6 [10, 19]: 1
Stabilisation (months) >12 [10, 19]: 1
Best response PD clin (RECIST) ([10]; primary tumour site HCC, N=9): 4
Best response SD (RECIST) ([10]; primary tumour site HCC, N=9): 5
Stabilisation (months) <6 ([10]; primary tumour site HCC, N=9): 8
Stabilisation (months) >6 ([10]; primary tumour site HCC, N=9): 1
Best response PD meas (RECIST) ([10]; primary tumour site NSCLC, N=4): 1
Best response SD (RECIST) ([10]; primary tumour site NSCLC, N=4): 3
Stabilisation (months) <6 ([10]; primary tumour site NSCLC, N=4): 4
Best response NA (not assessable for response) [10, 20]: 1
Best response PD clin (RECIST) [10, 20]: 1
Best response PD meas (RECIST) [10, 20]: 4
Best response SD (RECIST) [10, 20]: 10
Stabilisation (months) <6 [10, 20]: 13
Stabilisation (months) >6 [10, 20]: 3
Best response PD clin (RECIST) [10, 21]: 2
Best response PD meas (RECIST) [10, 21]: 2
Stabilisation (months) <6 [10, 21]: 4
Best response PD clin (RECIST) ([10]; primary tumour site RCC, N=12): 1
Best response PD meas (RECIST) ([10]; primary tumour site RCC, N=12): 1
Best response SD (RECIST) ([10]; primary tumour site RCC, N=12): 7
Stabilisation (months) <6 ([10]; primary tumour site RCC, N=12): 10
Stabilisation (months) >12 ([10]; primary tumour site RCC, N=12): 2
tumour growth in vivo [11]: potent, dose-dependent reduction in tumour growth
IL-8 plasma levels [12]: no relevant changes
drug–drug interactions due to displacement from plasma protein-binding sites [13]: unlikely
VEGF-dependent proliferation [14]: inhibited
bFGF plasma levels [15]: no relevant changes
tumour growth in vivo [16]: potent, dose-dependent reduction in tumour growth
VEGFR-2 tyrosine kinase activity [17]: potent inhibitor
main target of metabolic degradation [18]: N-methyl group
risk of drug–drug interactions ([18]; human microsomes, hepatocytes or single CYP isoforms): no or only a very low risk of drug–drug interactions
biotransformation by CYP isoforms ([18]; in vitro): metabolised by various CYP isoforms

— publication PMC2584942, “Phase I dose escalation study of telatinib (BAY 57-9352) in patients with advanced solid tumours” (British Journal of Cancer, 2008)
